The values below come from patent US9107926B2, “Mutant selectivity and combinations of a phosphoinositide 3-kinase inhibitor compound and chemotherapeutic agents for the treatment of cancer” (Genentech, Inc., priority 2012, dated 2015).

For assay [1], the system named is Endocrine-resistant MCF7-ARO cells. Description: 4 day CellTiter-Glo assay in endocrine resistant cells. The format is cell-based, human. Particulars: FIG. 40A. On the technique in general: Cellular ATP, detected with luciferase, serves as a proxy for viable cell number.
Excerpt: Endocrine-resistant MCF7-ARO cells were obtained by letrozole dose escalation over about 4 months.
In a further assay the target is PI3K alpha H1047R mutant (Homo sapiens, UniProt P42336, H1047R). Particulars: relative to PI3K alpha; Folkes et al (2008); cited from earlier work.
PI3K alpha H1047R mutant, sequence (P42336 whole entry H1047R): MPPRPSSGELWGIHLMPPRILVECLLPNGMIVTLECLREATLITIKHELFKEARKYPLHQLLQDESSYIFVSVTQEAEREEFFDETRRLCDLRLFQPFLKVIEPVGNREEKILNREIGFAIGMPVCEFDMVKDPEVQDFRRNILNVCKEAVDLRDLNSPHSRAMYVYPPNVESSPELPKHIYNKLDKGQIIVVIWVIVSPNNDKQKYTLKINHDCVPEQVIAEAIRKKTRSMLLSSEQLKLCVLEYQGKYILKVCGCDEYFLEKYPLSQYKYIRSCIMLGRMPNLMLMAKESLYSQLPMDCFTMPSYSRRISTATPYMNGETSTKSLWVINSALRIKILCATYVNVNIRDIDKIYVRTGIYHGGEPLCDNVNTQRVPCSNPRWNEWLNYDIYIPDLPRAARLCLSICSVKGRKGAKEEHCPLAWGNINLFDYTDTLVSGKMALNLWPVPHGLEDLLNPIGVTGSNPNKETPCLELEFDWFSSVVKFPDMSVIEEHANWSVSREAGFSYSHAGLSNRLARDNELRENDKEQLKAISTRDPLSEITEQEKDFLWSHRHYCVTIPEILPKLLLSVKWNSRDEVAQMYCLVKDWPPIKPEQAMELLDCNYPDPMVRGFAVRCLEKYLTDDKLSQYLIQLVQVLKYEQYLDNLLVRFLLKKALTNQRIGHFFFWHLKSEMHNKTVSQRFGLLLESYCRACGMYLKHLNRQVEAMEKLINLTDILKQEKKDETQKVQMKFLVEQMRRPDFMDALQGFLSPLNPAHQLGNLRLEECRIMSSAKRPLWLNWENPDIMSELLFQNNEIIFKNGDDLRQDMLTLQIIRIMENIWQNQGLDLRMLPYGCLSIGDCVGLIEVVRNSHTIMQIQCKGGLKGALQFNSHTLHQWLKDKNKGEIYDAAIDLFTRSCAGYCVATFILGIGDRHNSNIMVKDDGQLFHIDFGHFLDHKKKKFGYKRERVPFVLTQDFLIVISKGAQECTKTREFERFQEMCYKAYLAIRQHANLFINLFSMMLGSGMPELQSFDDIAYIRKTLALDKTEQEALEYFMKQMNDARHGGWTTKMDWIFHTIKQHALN
PI3K alpha H1047R mutant, sequence (P27986 whole entry partner): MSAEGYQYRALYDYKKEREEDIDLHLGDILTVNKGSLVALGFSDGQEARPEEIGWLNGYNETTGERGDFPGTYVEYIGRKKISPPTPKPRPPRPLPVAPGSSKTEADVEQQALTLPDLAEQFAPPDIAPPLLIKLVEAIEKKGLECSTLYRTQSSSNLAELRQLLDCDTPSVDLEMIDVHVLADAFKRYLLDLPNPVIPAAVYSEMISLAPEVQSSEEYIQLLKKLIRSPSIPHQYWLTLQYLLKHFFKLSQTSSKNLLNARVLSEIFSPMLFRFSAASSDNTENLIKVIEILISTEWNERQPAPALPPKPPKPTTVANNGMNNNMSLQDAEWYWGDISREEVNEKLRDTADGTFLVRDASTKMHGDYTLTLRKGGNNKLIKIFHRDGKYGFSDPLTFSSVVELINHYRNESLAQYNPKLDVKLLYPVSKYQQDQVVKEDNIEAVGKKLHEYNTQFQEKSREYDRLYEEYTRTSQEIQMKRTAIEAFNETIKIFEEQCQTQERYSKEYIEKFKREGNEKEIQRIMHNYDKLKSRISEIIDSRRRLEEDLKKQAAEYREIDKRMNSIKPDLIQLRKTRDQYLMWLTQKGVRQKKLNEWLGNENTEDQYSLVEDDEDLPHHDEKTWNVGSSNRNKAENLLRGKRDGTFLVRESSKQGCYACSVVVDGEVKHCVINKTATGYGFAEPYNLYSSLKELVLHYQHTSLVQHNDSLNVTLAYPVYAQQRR
A further assay relates to cancer cell lines. As to the kind of experiment: cell proliferation assays across cancer cell lines (FIGS. 1-3, 12). The format is cell-based. Particulars: EC50, cell proliferation assays. The source says: EC50 values were established for the experiments.
The test system of assay [2] is HCC1954.x1 breast tumor xenografts. Description: In vivo mouse tumor xenograft efficacy. Details: species or system mice. Particulars: 150 mg/kg; QD x 21; PO. The method, then: The term uL means microliter.
(§1) Xenografts were initiated with cancer cells. […] Volume was calculated using the formula: […]

The test system of assay [3] is MCF-7 neo/HER2 breast cancer tumor xenografts. Description: In vivo mouse tumor xenograft efficacy. Details: species or system mice. The method, then:
as §1

For the next assay, the target named is PI3K alpha E545K mutant (Homo sapiens, UniProt P42336, E545K). The following applies: relative to PI3K alpha; Folkes et al (2008); cited from earlier work.
PI3K alpha E545K mutant, sequence (P42336 whole entry E545K): as the sequence (P42336 whole entry H1047R) above, with E545K, R1047H counted along it
PI3K alpha E545K mutant, sequence (P27986 whole entry partner): as the sequence (P27986 whole entry partner) above
Another assay deals with MCF7-ARO cells. As to the kind of experiment: modulation of PI3K pathway and ER pathway markers and apoptosis induction. The class given is cell-based, human. Particulars: Twenty-four hour treatment.

Consider `C[C@]12CC[C@@H]3c4ccc(O)cc4C[C@@H](CCCCCCCCC[S+]([O-])CCCC(F)(F)C(F)(F)F)[C@H]3[C@@H]1CC[C@@H]2O` (some centres unmarked) [fulvestrant, (7a,1713)-7-{9-[(4,4,5,5,5-pentafluoropentyl)sulfinyl]nonyl}estra-1,3,5(10)-triene-3,17-diol], for which, in assay [1], the “resistance of endocrine-resistant cells” value was “resistant”.
Regarding `CS(=O)(=O)N1CCN(Cc2cc3nc(-c4cccc5[nH]ncc45)nc(N4CCOCC4)c3s2)CC1` [GDC-0941, 4-(2-(1H-indazol-4-yl)-6-((4-(methylsulfonyl)piperazin-1-yl)methyl)thieno[3,2-d]pyrimidin-4-yl)morpholine, reference compound], on PI3K alpha H1047R mutant, the “PI3K alpha H1047R mutant” value is 1x. Besides, in the assay on cancer cell lines, the “sensitivity of cancer cell lines with HER2 amplification versus those without HER2 amplification” value is recorded as 9 times. For the same compound, the “% TGI@ day 21” value came to 90% in assay [2] and 80% in assay [3] (QD, 150 mg/kg). For the same compound, the “PI3K alpha E545K mutant” value at PI3K alpha E545K mutant is 1x.
For `CC/C(=C(\c1ccccc1)c1ccc(OCCN(C)C)cc1)c1ccccc1` [tamoxifen, (Z)-2-[4-(1,2-diphenylbut-1-enyl)phenoxy]-N,N-dimethylethanamine], the “resistance of endocrine-resistant cells” value in assay [1] was “resistant”.
For the compound `C=C1C[C@@H]2[C@H](CC[C@]3(C)C(=O)CC[C@@H]23)[C@@]2(C)C=CC(=O)C=C12` [exemestane], the “resistance of endocrine-resistant cells” value in assay [1] is “resistant”.
As to `N#Cc1ccc(C(c2ccc(C#N)cc2)n2cncn2)cc1` [letrozole, 4,4′-((1H-1,2,4-triazol-1-yl)methylene)dibenzonitrile], in the assay on MCF7-ARO cells, the “PI3K and ER pathway markers” value is “increases HER2 and pAkt, but decreases pmTOR and pp 70S6K”. For the same compound, in assay [1], the “resistance of endocrine-resistant cells” value was “resistant”.
As to `CC(=O)O[C@@]12CO[C@@H]1C[C@H](O)[C@@]1(C)C(=O)[C@H](O)C3=C(C)[C@@H](OC(=O)[C@H](O)[C@@H](NC(=O)OC(C)(C)C)c4ccccc4)C[C@@](O)([C@@H](OC(=O)c4ccccc4)[C@H]21)C3(C)C` [Docetaxel, (2R,3S)—N-carboxy-3-phenylisoserine, N-tert-butyl ester, 13-ester with 5,20-epoxy-1,2,4,7,10,13-hexahydroxytax-11-en-9-one 4-acetate 2-benzoate, trihydrate, reference compound], the “% TGI@ day 21” value in assay [3] (QW, 7.5 mg/kg) is reported as 69%.
